≈ marks a conversion by molar mass, not a printed value. Entries after “also recorded” stand apart in the source; their conditions may differ. Read-outs that look alike come from different tables or passages of the source.
Assays:
hearing function = test: 28-day guinea pig ototoxicity study of Compound 1: ABR and observations
Protocol: (§3) Additionally, four groups of four male and four female animals were utilized for toxicokinetic (TK) sampling and received the control or test article in the same manner as the main study groups at respective dose levels of 0 (Vehicle Control), 8, 30, or 80 mg/kg.
(§4) Physical examinations were conducted pretest on all animals and prior to study termination for main study animals. […] Blood samples for determination of the plasma concentrations of the test article were collected from TK animals at designated time points on Day 1 and Day 14. After blood collection, the TK animals were euthanized and the carcasses were discarded.

[1] = system: coagulase-negative staphylococci (CoNS); test: MIC, CLSI broth microdilution, worldwide isolates: coagulase-negative staphylococci; format: cell-based
From the text: (§1) In the first study, a total of 235 isolates were collected from medical centers worldwide and tested for susceptibility to Compound 1 and comparator agents by CLSI broth microdilution methods. […] Non-ENT GN pathogens included WT P. aeruginosa (PSA) and Acinetobacter spp. (ACB), and carbapenem (CARB)-R strains, including those with MBL and OXA enzymes, SA and coagulase-negative staphylococci (CoNS) included oxacillin-susceptible (MSSA/MS-CoNS) and —R (MRSA/MR-CoNS) strains.
(§2) Minimum inhibitory concentrations (MIC) were determined by reference Clinical and Laboratory Standards Institute (CLSI) broth microdilution methods per M7-A7 [2006]. Briefly, serial two-fold dilutions of Compound 1 and comparator AGs (together, “the test compounds”) were prepared at 2× concentration in appropriate diluent. The dilutions were mixed in 96-well assay plates with bacterial inoculum. Bacteria were suspended in sterile saline and added to each assay plate to obtain a final concentration of 5.5×10^5 CFU/mL. The plates were incubated at 35° C. for 20 hours in ambient air. […] After incubation, assay plates were read using a microtiter plate reader at 600 nm.

cochlear hair cells = test: Cytocochleogram analysis in 28-day guinea pig ototoxicity model; format: in vivo, guinea pigs
Protocol: Following euthanasia and whole body intravascular perfusion with 4% paraformaldehyde, the temporal bones of the left and right ears were removed. Gross middle ear assessments were performed using a dissecting microscope. […] Following gross middle ear assessment, the cochleas of the left ear were fixed by intrascalar perfusion with 4% paraformaldehyde. Cochlea tissues of both ears were placed in 4% paraformaldehyde for approximately 1 hour. Tissues were then transferred to 0.5% paraformaldehyde, stored refrigerated, and shipped on gel packs to the Kresge Hearing Research Institute, Ann Arbor, Mich., for further processing and cytocochleogram analysis.
These guinea pig ototoxicity studies also included microscopic analysis of surgically dissected cochleas from each animal to assess hair cell damage (cytocochleograms). The underlying cause of aminoglycoside related hearing loss is damage to the hair cells of the auditory system after significant accumulation of aminoglycosides in the inner ear. In the cochlea, drug-induced hair cell loss typically progresses from the basal to the apical turns of the cochlea. Perception of high-frequency sounds, a function of the basal hair cells, is lost first; perception of low-frequency sounds, a function of the more apical hair cells, is the last to be lost (Selimoglu, E., Curr Pharm Des. 2007; 13(1):119-26). For obvious reasons, it is impractical to obtain cytocochleograms from each animal prior to dosing, and some hair cell loss is usually observed in control (vehicle dosed) animals in these guinea pig studies. This variability makes it difficult to determine whether hair cell loss observed post-treatment is due to the drug treatment, especially mild hair cell loss, […]

[2] = Guinea pig toxicokinetics of Compound 1; format: in vivo, guinea pigs
Protocol: as §3, §4

P. aeruginosa (PSA) = test: MIC, CLSI broth microdilution, worldwide isolates: P. aeruginosa; format: cell-based
From the text: as §1, §2

Enterobacteriaceae (EN) = test: MIC, broth microdilution, Brooklyn hospital isolates: Enterobacteriaceae subsets (amikacin-resistant, KPC+); format: cell-based
Protocol: In another study, the activity of Compound 1 against a collection of contemporary Gram-negative bacteria was determined. Unique patient isolates of P. aeruginosa (PA), A. baumannii (AB), K. pneumoniae (KP), E. coli (EC), and Enterobacter spp. (EB) from prior surveys at 16 Brooklyn, N.Y. hospitals were selected based on resistance patterns. The majority of isolates were fingerprinted by automated ribotyping. MICs were performed by broth microdilution. PCR was used to identify aminoglycoside-modifying enzymes (AMEs) in AB and KP and the KPC gene in Enterobacteriaceae (EN). The expression of the efflux genes mexA, C, E and X in PA, and adeB in AB was assessed by real-time RT-PCR.

[3] = GLP 14-day repeat-dose safety study in rat; format: in vivo
From the text: The Food and Drug Administration (FDA) has provided general guidance for estimating the maximum recommended starting dose (MRSD) for initial human clinical trials. The guidance states that the MRSD must be derived from the no observable adverse effect level (NOAEL) obtained in Good Laboratory Practice (GLP) nonclinical animal safety studies. The NOAEL for Compound 1 has been determined in GLP 14-day repeat-dose safety studies in both rat and dog. Estimation of the human equivalent dose (HED) at the NOAEL is based on both a surface area conversion factor (SACF) and the data from these studies. Based on this standard methodology, the HED for the predicted NOAEL in each species has been determined and is presented in Table 18.

[4] = Prediction of human plasma levels and half-life of Compound 1 from mouse, rat and dog data (allometric scaling); settings: humans
Protocol: The PK profile of Compound 1 supports use of high doses in short infusions, administered once-daily to achieve high Cmax and AUC, which are important for both efficacy and safety.
In the phase 1 clinical studies described herein, Compound 1 was administered over a short infusion time period of 10 minutes. Based upon allometric scaling of the mouse, rat and dog nonclinical data, the Cmax associated with longer infusion time periods was predicted, as summarized in Table 21. As shown, longer infusion time periods are associated with lower Cmax, resulting in a lower Cmax to AUC ratio.

[5] = Pseudomonas aeruginosa, PSA isolates

## CN[C@@H]1[C@@H](O)[C@@H](O[C@@H]2[C@@H](O)[C@H](O[C@H]3OC(CNCCO)=CC[C@H]3N)[C@@H](N)C[C@H]2NC(=O)[C@@H](O)CCN)OC[C@]1(C)O [Compound 1, 6′-(2-Hydroxy-ethyl)-1-(4-amino-2(S)-hydroxy-butyryl)-sisomicin]
Hearing function; guinea pigs, 8 mg/kg dose group
  animals with elevation of ABR thresholds (mild, 4 and 10 kHz, conductive): one male and one female
Hearing function; guinea pigs, 8, 30, 80 mg/kg for 14 days, 4, 10, 20 kHz
  ABR pre- to post-dosing hearing threshold shift: no significant pre- to post-dosing hearing threshold shift at any frequency; also recorded: did not have an adverse effect
Hearing function; guinea pigs, 14 days, up to 80 mg/kg/day
  functional hearing loss (ABR): no functional hearing loss; also recorded: None of the animals treated with Compound 1 at any dose showed any functional hearing loss
Hearing function; guinea pigs, SC 8, 30, 80 mg/kg for 14 days
  mortality and general observations: did not produce mortality and was without effect on clinical observations, body weights, physical examinations, ABR evaluations, macroscopic findings, middle ear assessments, or ossicle mobility
[1]; CONS isolates
  MIC50: ≤ 0.25 µg/mL
  MIC90: ≤ 0.25 µg/mL
[1]; CoNS (20)
  Cumulative % inhibited at Cmpd. MIC ≦0.5: 100.0%
Cochlear hair cells; guinea pigs, 8 mg/kg
  animals with a few spikes of minimal hair cell loss: 2/8
Cochlear hair cells; guinea pigs, 30 mg/kg
  animals with minimal to moderate outer hair cell loss at the apical end or middle region: 3/8
Cochlear hair cells; guinea pigs, 80 mg/kg
  animals with large loss of outer hair cells across the length of the cochlea: One of 8
  animals with minimal loss of both inner and outer hair cells at the mid-cochlea or apical end: 2/8
Cochlear hair cells; guinea pigs, 8, 30, 80 mg/kg
  dose-response of hair cell loss: no dose-response of hair cell loss
[2]; 80 mg/kg/day guinea pig vs 15 mg/kg human
  guinea pig AUC relative to average human AUC at proposed clinical dose: 1.5 ×
[2]; both sexes, Crl:HA (Albino Hartley), guinea pig, plasma, subcutaneous, guinea pigs, 80 mg/kg/day
  AUC: 370 µg·h/mL
P. aeruginosa (PSA); PSA (30)
  Cumulative % inhibited at Cmpd. MIC 1: 3.3%
  Cumulative % inhibited at Cmpd. MIC 2: 3.3%
  Cumulative % inhibited at Cmpd. MIC 4: 30.0%
  Cumulative % inhibited at Cmpd. MIC 8: 50.0%
  Cumulative % inhibited at Cmpd. MIC 16: 76.7%
  Cumulative % inhibited at Cmpd. MIC 32: 96.7%
  Cumulative % inhibited at Cmpd. MIC 64: 96.7%
  Cumulative % inhibited at Cmpd. MIC >64: 100.0%
  Cumulative % inhibited at Cmpd. MIC ≦0.5: 0.0%
P. aeruginosa (PSA); PSA, CARB-R (20)
  Cumulative % inhibited at Cmpd. MIC 1: 0.0%
  Cumulative % inhibited at Cmpd. MIC 2: 0.0%
  Cumulative % inhibited at Cmpd. MIC 4: 10.0%
  Cumulative % inhibited at Cmpd. MIC 8: 25.0%
  Cumulative % inhibited at Cmpd. MIC 16: 65.0%
  Cumulative % inhibited at Cmpd. MIC 32: 95.0%
  Cumulative % inhibited at Cmpd. MIC 64: 95.0%
  Cumulative % inhibited at Cmpd. MIC >64: 100.0%
  Cumulative % inhibited at Cmpd. MIC ≦0.5: 0.0%
P. aeruginosa (PSA); PSA, WT (10)
  Cumulative % inhibited at Cmpd. MIC 1: 10.0%
  Cumulative % inhibited at Cmpd. MIC 2: 10.0%
  Cumulative % inhibited at Cmpd. MIC 4: 70.0%
  Cumulative % inhibited at Cmpd. MIC 8: 100.0%
  Cumulative % inhibited at Cmpd. MIC ≦0.5: 0.0%
P. aeruginosa (PSA); [5]
  MIC50: 8 µg/mL (≈ 13.5 µM)
  MIC90: 32 µg/mL (≈ 54 µM)
Enterobacteriaceae (EN)
  MIC50: 0.5 µg/mL (≈ 0.844 µM)
Enterobacteriaceae (EN); Amikacin-Resistant-EN (n = 35)
  MIC90: 2 µg/mL (≈ 3.37 µM)
Enterobacteriaceae (EN); KPC +− EN (n = 24)
  MIC50: 0.5 µg/mL (≈ 0.844 µM)
  MIC90: 4 µg/mL (≈ 6.75 µM)
[3]; from rat NOAEL, SACF 6.2
  HED: 1.3 mg/kg
[3]; nonclinical GLP safety studies in rats
  new toxicities: no new toxicities apart from those already known to the class
[3]; rat, in vivo
  NOAEL at 14 days: 8 mg/kg
[4]
  predicted Cmax with longer infusion time periods: lower Cmax

Source: patent publication US20120208781A1, “AMINOGLYCOSIDE DOSING REGIMENS” (Achaogen, Inc., priority 2009, published 2012)
